Assay results published in DBAASP.
Converted amounts (≈) assume the structure as drawn.

Legend:
Test in all cases: ≥ marks a high value that may be exact or a test limit, other limits are often not marked, values filed in µg/mL are converted to µM
[1] = test system: Acinetobacter baumannii B28-16
[2] = test system: Enterococcus faecium V286-17
[3] = test system: Escherichia coli E423-17
[4] = test system: Klebsiella pneumoniae E406-17
[5] = test system: Klebsiella pneumoniae
[6] = test system: Pseudomonas aeruginosa E411-17
[7] = test system: Staphylococcus aureus M838-17
[8] = test system: Staphylococcus aureus MU50
[9] = test system: Staphylococcus aureus Newman
[10] = test system: Staphylococcus aureus UAMS-1
[11] = test system: Staphylococcus aureus USA 200
[12] = test system: Staphylococcus aureus USA 300
[13] = test system: Staphylococcus aureus USA 400
[14] = test system: Staphylococcus aureus
[15] = test system: Enterococcus faecium BCRC 15B0132
[16] = test system: Escherichia coli ATCC 25922
[17] = test system: Staphylococcus aureus VISA1
[18] = test system: Staphylococcus aureus VISA3
[19] = test system: Staphylococcus aureus VRSA1
[20] = test system: Staphylococcus aureus VRSA2
[21] = test system: Candida albicans ATCC 36232
[22] = test system: Escherichia coli ATCC 2592
[23] = test system: Micrococcus luteus ATCC 9341
[24] = test system: Proteus vulgaris ATCC 6380
[25] = test system: Pseudomonas aeruginosa ATCC 9027
[26] = test system: Staphylococcus aureus ATCC 6538
[27] = test system: Escherichia coli NBRC 14237
[28] = test system: Pseudomonas aeruginosa NBRC 12582
[29] = test system: Staphylococcus aureus NBRC 12732
[30] = test system: Acinetobacter baumannii
[31] = test system: Enterobacter cloacae
[32] = test system: Escherichia coli ATCC 35218
[33] = test system: Klebsiella aerogenes
[34] = test system: Klebsiella oxytoca
[35] = test system: Proteus mirabilis
[36] = test system: Pseudomonas aeruginosa
[37] = test system: Salmonella enterica
[38] = test system: Serratia marcescens
[39] = test system: Staphylococcus epidermidis
[40] = test system: Staphylococcus haemolyticus
[41] = test system: Staphylococcus saprophyticus
[42] = test system: Aspergillus oryzae NBRC 100959
[43] = test system: Candida viswanathii NBRC 10321
[44] = test system: Escherichia coli NBRC 3972
[45] = test system: Micrococcus luteus NBRC 3333
[46] = test system: Pseudomonas putida NBRC 100650
[47] = test system: Staphylococcus epidermidis NBRC 12993

For `CC(C)[C@H](NC(=O)[C@H](Cc1c[nH]c2ccccc12)NC(=O)[C@H](Cc1c[nH]c2ccccc12)NC(=O)[C@H](Cc1c[nH]c2ccccc12)NC(=O)[C@H](Cc1c[nH]c2ccccc12)NC(=O)[C@H](CCCN=C(N)N)NC(=O)[C@H](CCCN=C(N)N)NC(=O)[C@@H](N)CCCN=C(N)N)C(N)=O` [RRRWWWWV], the MIC [1] was 8 µM (≈ 10.6 µg/mL), the MIC [2] was 2 µM (≈ 2.66 µg/mL) and the MIC [3] was 2 µM (≈ 2.66 µg/mL). For the same molecule, the MIC [4] was 11.3 µM (≈ 15 µg/mL), the MIC [5] was 11.3 µM (≈ 15 µg/mL) and the MIC [6] was 5.66 µM (≈ 7.52 µg/mL). For the same molecule, the MIC [7] was 3.1 µM (≈ 4.12 µg/mL), the MIC [8] was 8 µM (≈ 10.6 µg/mL) and the MIC [9] was 4 µM (≈ 5.32 µg/mL). The MIC [10] was 4 µM (≈ 5.32 µg/mL), the MIC [11] was 4 µM (≈ 5.32 µg/mL) and the MIC [12] was 2.83 µM (≈ 3.76 µg/mL). For the same molecule, the MIC [13] was 4 µM (≈ 5.32 µg/mL) and the MIC [14] was 4 µM (≈ 5.32 µg/mL).

With `CC(=O)N[C@@H](C)C(=O)N[C@@H](CCCCN)C(=O)N[C@@H](CCCN=C(N)N)C(=O)N[C@@H](Cc1ccccc1)C(=O)N[C@@H](Cc1ccccc1)C(=O)NCC(=O)N[C@@H](Cc1ccc(O)cc1)C(=O)N[C@@H](CCCCN)C(=O)N[C@@H](CCCN=C(N)N)C(=O)N[C@@H](CCCCN)C(=O)N[C@@H](Cc1ccccc1)C(=O)N[C@@H](Cc1ccccc1)C(N)=O` [AKRFFGYKRKFF] the MIC [15] was at least 40.1 µM, the MIC [16] was 40.1 µM (≈ 65.6 µg/mL) and the MIC [17] was at least 40.1 µM. The MIC [18] was at least 40.1 µM, the MIC [19] was at least 40.1 µM and the MIC [20] was at least 40.1 µM.

`CC(C)[C@H](NC(=O)[C@H](CCCCN)NC(=O)[C@@H]1CCCN1C(=O)[C@@H](NC(=O)[C@@H](NC(=O)[C@H](CCCCN)NC(=O)[C@@H](N)CCCCN)C(C)C)C(C)C)C(=O)N[C@@H](CCCCN)C(=O)N[C@@H](Cc1ccccc1)C(=O)N[C@@H](CCCCN)C(N)=O` [KKVVPKVKFK] gave an MIC [21] of at least 83.3 µM, an MIC [22] of at least 83.3 µM and an MIC [23] of at least 83.3 µM. The MIC [24] was at least 83.3 µM, the MIC [25] was 83.3 µM (≈ 99.9 µg/mL) and the MIC [26] was over 83.3 µM. It also gave an MIC [14] of over 83.3 µM.

`CC(C)C[C@H](NC(=O)[C@@H](N)CCCCN)C(=O)N[C@@H](CCCCN)C(=O)N[C@H](C(=O)N[C@@H](Cc1c[nH]c2ccccc12)C(=O)N1CCC[C@H]1C(=O)N[C@@H](CCCCN)C(=O)N[C@@H](CC(N)=O)C(=O)N[C@@H](Cc1ccc(O)cc1)C(=O)N[C@@H](Cc1c[nH]c2ccccc12)C(=O)N[C@@H](CCCN=C(N)N)C(=O)N[C@@H](CCCCN)C(=O)N[C@H](C(=O)N[C@@H](Cc1c[nH]c2ccccc12)C(=O)N[C@@H](CO)C(=O)N[C@@H](CCCCN)C(=O)N[C@@H](CCCCN)C(=O)N[C@@H](CC(N)=O)C(=O)N[C@@H](Cc1c[nH]c2ccccc12)C(=O)N[C@@H](CCCN=C(N)N)C(=O)N[C@@H](CCCCN)C(=O)N[C@@H](Cc1ccccc1)C(=O)N[C@H](C(=O)N[C@@H](CCCCN)C(=O)N[C@@H](CCCCN)C(=O)N[C@@H](Cc1ccccc1)C(=O)N[C@@H](CCCCN)C(=O)N[C@@H](Cc1cnc[nH]1)C(=O)N[C@@H](Cc1c[nH]c2ccccc12)C(=O)O)C(C)C)C(C)C)[C@@H](C)O` [KLKTWPKNYWRKVWSKKNWRKFVKKFKHW] gave an MIC [27] of 3.12 µM (≈ 12.4 µg/mL), an MIC [28] of 3.12 µM (≈ 12.4 µg/mL) and an MIC [29] of 3.12 µM (≈ 12.4 µg/mL).

With `CC[C@H](C)[C@H](NC(=O)[C@H](CCCCN)NC(=O)[C@H](C)NC(=O)[C@H](CC(C)C)NC(=O)[C@H](Cc1ccccc1)NC(=O)[C@H](CCCN=C(N)N)NC(=O)[C@H](C)NC(=O)[C@H](Cc1ccc(O)cc1)NC(=O)[C@H](CCCN=C(N)N)NC(=O)[C@H](Cc1cnc[nH]1)NC(=O)[C@H](Cc1ccccc1)NC(=O)[C@H](Cc1ccc(O)cc1)NC(=O)[C@H](CCCN=C(N)N)NC(=O)[C@H](CCC(N)=O)NC(=O)[C@@H](N)Cc1ccccc1)C(=O)N[C@@H](Cc1c[nH]c2ccccc12)C(=O)N[C@@H](CCCCN)C(=O)NCC(=O)O` [FQRYFHRYARFLAKIWKG] the MIC [30] was 10 µM (≈ 23.9 µg/mL), the MIC [31] was 10 µM (≈ 23.9 µg/mL) and the MIC [32] was 0.9 µM (≈ 2.15 µg/mL). The MIC [33] was 10 µM (≈ 23.9 µg/mL), the MIC [34] was 3.6 µM (≈ 8.6 µg/mL) and the MIC [5] was 1.4 µM (≈ 3.34 µg/mL). For the same molecule, the MIC [35] was 10 µM (≈ 23.9 µg/mL), the MIC [36] was 2.8 µM (≈ 6.69 µg/mL) and the MIC [37] was 10 µM (≈ 23.9 µg/mL). It also gave an MIC [38] of 10 µM (≈ 23.9 µg/mL), an MIC [14] of 1.8 µM (≈ 4.3 µg/mL) and an MIC [39] of 10 µM (≈ 23.9 µg/mL). It also gave an MIC [40] of 10 µM (≈ 23.9 µg/mL) and an MIC [41] of 10 µM (≈ 23.9 µg/mL).

In the case of `CC[C@H](C)[C@H](NC(=O)[C@H](CCCCN)NC(=O)[C@H](CCCN=C(N)N)NC(=O)[C@H](CCC(=O)O)NC(=O)[C@H](CCC(=O)O)NC(=O)[C@H](CCSC)NC(=O)[C@@H](NC(=O)[C@H](CC(N)=O)NC(=O)[C@@H](N)CO)C(C)C)C(=O)N[C@@H](CCCCN)C(=O)N[C@H](C(=O)N[C@@H](Cc1ccc(O)cc1)C(=O)N[C@@H](CC(C)C)C(=O)N1CCC[C@H]1C(=O)N[C@@H](CCCN=C(N)N)C(=O)N[C@@H](CCSC)C(=O)N[C@@H](CCCCN)C(=O)N[C@@H](CCSC)C(=O)N[C@@H](CCC(=O)O)C(=O)N[C@@H](CCC(=O)O)C(=O)O)C(C)C` [SNVMEERKIKVYLPRMKMEE], the MIC [42] is reported as at least 319 µM, the MIC [43] is reported as at least 319 µM and the MIC [44] is reported as at least 319 µM. For the same molecule, the MIC [45] was at least 319 µM, the MIC [46] was at least 319 µM and the MIC [47] was at least 319 µM.
